# Measurements: patent US7718360B2, “Composition (RCUD) for protecting and/or repairing DNA from oxidative damages and a method thereof” (Council of Scientific & Industrial Research, priority 2003, dated 2010)
# Numbered stars: 1 amine (or outer) side, 2 acyl side, 3 side chain; on linkers, the order of the positions; unused ones are H or OH. Bridge positions count the residues as written; N and C are the ends. Square brackets hold non-standard residues; d marks the D form. Peptide text beside a SMILES is read from it. I, II: the chains in the order shown. Actinocin(9to1) = Cc1c2oc3c(C)ccc(C(=O)[*:1])c3nc-2c(C(=O)[*:2])c(N)c1=O; NMeV = CN[C@H](C(=O)O)C(C)C; Sar = CNCC(=O)O
# Key:
# Assay type in all cases: cell-based
# [1] = test system: polymorphonuclear leucocytes; test: DNA damage induced by manganese dioxide (MnO2) and protection by redistilled cow's urine distillate; settings: Table 4; MnO2 20 μl alone (positive control)
# Method: (§1) To 5 ml of whole blood 15 ml of solution A is added, mixed well and kept between 2 and 4° C. for 30 minutes. The mixture was centrifuged at 800×g for 10 minutes. The supernatant is discarded, the pellet was washed with balanced salt solution and washing is discarded after centrifugation at 800×g for 10 minutes. This step was done twice. The pellet comprises of peripheral polymorphonuclear leukocytes (PMNs) which are suspended in predetermined amount of solution B.
# (§2) The volume in each tube was made up to 2 ml by adding BSS solution. The mixture is incubated at 37° C. for 1 hr in 5% CO2 incubator with 95% humidity. After incubation, 5 ml of ice cold 0.9% NaCl was added in each tube, centrifuged at 800 g for 10 minutes and the supernatant is discarded. To the pellet in each tube 1.5 ml of solution B was added. The tubes (control and three experimental) are mixed thoroughly and the mixture was equally distributed in the volume of 0.2 ml in 3 tubes designated as B, P and T, then 200 μl of solution C was added. The three tubes B, P & T, were kept in cold (0° C.) for 10 minutes after mixing well in order to lyse the cells. To tube T 400 μl of solution E was added. Thereafter, 200 μl of solution D was added to all the tubes B, P and T. The tubes were kept at 0° C. for 30 minutes. Thereafter, contents of the B tube was sonicated for 30 second three times. B, P and T were further incubated at 20° C. for 1 hr. To B and P tubes 400 μl of solution E was added and the tubes were incubated at 0° C. for 10 minutes. 1.5 ml of solution F are added to all the tubes, homogenized on a vortex shaker and subjected to fluorescence spectrophotometric analyses within 15 minutes with 520 nm excitation and at 590 nm emission. The percentage of double stranded DNA remaining was determined using the following formula. [Krishnamurthi et al. (2003) & Bimboim & Jevcak (1981)].
# (§3) [formula] • Where P, B and T are the fluorescence emissions at 590 nm.
# (§4) One ml of PMNs suspended in solution B containing around 1×10^6 cells were taken in four tubes A, B, C and D. To tube B, 60 μl of redistilled cow urine distillate (RCUD) was added and incubated at 37° C. for 10 minutes.
# (§5) To tube A only 60 μl of RCUD was added; the volume was made up with BSS. The mixture was incubated at 37° C. for 1 hr in 5% CO2 incubator with 95% humidity. The rest of the protocol was followed as described under C and D.
# [2] = test system: polymorphonuclear leucocytes; test: DNA damage induced by actinomycin D and protection by redistilled cow's urine distillate; settings: Table 2; Actinomycin D alone (positive control)
# Method: as §1, §2, §3, §4, §5
# [3] = test system: polymorphonuclear leucocytes; test: DNA damage induced by hydrogen peroxide (H2O2) and protection by redistilled cow's urine distillate
# Method: as §1
# as §2, with “formula.” for “formula. [Krishnamurthi et al. (2003) & Bimboim & Jevcak (1981)].”
# as §3, §4, §5
# [4] = Table 3, H2O2 alone (positive control)
# [5] = Table 5, H2O2 10 μl alone (positive control)
# [6] = Table 6, H2O2 10 μl alone (positive control)
smiles,measurement,setting,value
"[O]=[Mn]=[O] [Manganese dioxide (MnO2), Manganese dioxide]","Mean, percentage of double stranded DNA remaining",[1],21 percentage
same,"Set I, percentage of double stranded DNA remaining",[1],22 percentage
same,"Set II, percentage of double stranded DNA remaining",[1],30 percentage
same,"Set III, percentage of double stranded DNA remaining",[1],22 percentage
same,"Set IV, percentage of double stranded DNA remaining",[1],15 percentage
same,"Set V, percentage of double stranded DNA remaining",[1],16 percentage
"Cc1c2oc3c(C)ccc(C(=O)N[C@@H]4C(=O)N[C@H](C(C)C)C(=O)N5CCC[C@H]5C(=O)N(C)CC(=O)N(C)[C@@H](C(C)C)C(=O)O[C@@H]4C)c3nc-2c(C(=O)N[C@@H]2C(=O)N[C@H](C(C)C)C(=O)N3CCC[C@H]3C(=O)N(C)CC(=O)N(C)[C@@H](C(C)C)C(=O)O[C@@H]2C)c(N)c1=O [Actinomycin D] (I: T[dV]P[Sar][NMeV] / II: T[dV]P[Sar][NMeV]; ester I:1-I:C, II:1-II:C; linker I:N-II:N via Actinocin(9to1))","Mean, percentage of double stranded DNA remaining",[2],38 percentage
same,"Set I, percentage of double stranded DNA remaining",[2],40 percentage
same,"Set II, percentage of double stranded DNA remaining",[2],38 percentage
same,"Set III, percentage of double stranded DNA remaining",[2],44 percentage
same,"Set IV, percentage of double stranded DNA remaining",[2],28 percentage
same,"Set V, percentage of double stranded DNA remaining",[2],39 percentage
"OO [Hydrogen Peroxide (H2O2), Hydrogen Peroxide]","Mean, percentage of double stranded DNA remaining",[3]; [4],31 percentage
same,"Set I, percentage of double stranded DNA remaining",[3]; [4],20 percentage
same,"Set II, percentage of double stranded DNA remaining",[3]; [4],29 percentage
same,"Set III, percentage of double stranded DNA remaining",[3]; [4],24 percentage
same,"Set IV, percentage of double stranded DNA remaining",[3]; [4],43 percentage
same,"Set V, percentage of double stranded DNA remaining",[3]; [4],38 percentage
same,"Mean, percentage of double stranded DNA remaining",[3]; [5],26 percentage
same,"Set I, percentage of double stranded DNA remaining",[3]; [5],24 percentage
same,"Set II, percentage of double stranded DNA remaining",[3]; [5],24 percentage
same,"Set III, percentage of double stranded DNA remaining",[3]; [5],24 percentage
same,"Set IV, percentage of double stranded DNA remaining",[3]; [5],33 percentage
same,"Set V, percentage of double stranded DNA remaining",[3]; [5],24 percentage
same,"Mean, percentage of double stranded DNA remaining",[3]; [6],26 percentage
same,"Set I, percentage of double stranded DNA remaining",[3]; [6],24 percentage
same,"Set II, percentage of double stranded DNA remaining",[3]; [6],24 percentage
same,"Set III, percentage of double stranded DNA remaining",[3]; [6],24 percentage
same,"Set IV, percentage of double stranded DNA remaining",[3]; [6],33 percentage
same,"Set V, percentage of double stranded DNA remaining",[3]; [6],24 percentage
